Results on 15 compounds are retold here after US5340814A, “3-substituted methyl-2,3-dihydroimidazo[1,2-C] quinazoline derivatives, the preparation and use thereof” (National Science Council, priority 1992, dated 1994).

Molecules are shown by their SMILES.

For assay [1] the following is noted: acting as serotonin-S2 and α1-adrenoceptor antagonist, respectively; cited from earlier work.
In the next assay the target is T1, α2-adrenergic receptor (Rattus norvegicus, UniProt P22909).
T1 construct: from tissue; host or cells: rat brain cortex, P2 membranes
T1 sequence (P22909 1-465): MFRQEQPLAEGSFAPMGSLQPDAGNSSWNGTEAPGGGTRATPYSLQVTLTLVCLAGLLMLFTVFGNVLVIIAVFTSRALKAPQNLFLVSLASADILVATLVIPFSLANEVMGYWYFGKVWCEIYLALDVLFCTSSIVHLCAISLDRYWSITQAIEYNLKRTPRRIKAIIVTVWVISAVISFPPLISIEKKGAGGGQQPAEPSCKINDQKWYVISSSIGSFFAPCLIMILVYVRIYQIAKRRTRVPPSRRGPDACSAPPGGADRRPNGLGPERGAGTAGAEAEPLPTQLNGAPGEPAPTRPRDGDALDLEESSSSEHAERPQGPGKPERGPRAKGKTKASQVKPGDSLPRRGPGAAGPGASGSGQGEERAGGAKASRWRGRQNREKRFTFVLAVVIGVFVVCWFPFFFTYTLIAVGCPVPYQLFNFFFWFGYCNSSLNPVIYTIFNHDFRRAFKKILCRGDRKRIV
Kind of assay: α2-Adrenergic receptor binding, [^3 H] clonidine, rat brain cortex membranes. The conditions noted are these: 1 nM [^3 H] clonidine, 10 mM MgCl2, pH 7.4, 30 min, room temperature. The method, then: (§1) After the removal of nuclei by centrifugation at 1000×g for 10 min, P2 membranes were pelleted by centrifuging the supernatant at 22,000×g for 20 min. After two periods of centrifugation at 22,000×g and resuspension in fresh buffer, the membrane suspension (about 2 mg/ml protein) was ready for use. α1 -Adrenergic receptor binding assays (in triplicate) were carried out with 0.2 nM [^3 H] prazocin in a final volume of 1.0 ml of Tris buffer at pH 7.4 for 30 min at room temperature, using 10 μM phentolamine to determine non-specific binding. The concentrations of synthetic compounds for competition binding were in the range of 0.1-200 nM. α2 -adrenergic receptor binding assays (in triplicate) were carried out with 1 nM [^3 H] clonidine in the presence of 10 mM MgCl2 and in a final volume of 1.0 ml of Tris buffer at pH 7.4 for 30 min at room temperature, using 10 μM clonidine to determine non-specific binding. The concentrations of synthetic compounds for competition binding were in the range of 0.1-100 μM. […] The amount of membrane protein used in each assay was in the range of 300-400 μg, as determined by the method of Lowry et al. The results are given in Table 2. […] All other chemicals used were reagent grade and were purchased from Sigma (St. Louis, Mo.).

The next assay deals with α1-Adrenergic receptor. Kind of assay: α1-Adrenergic receptor binding, [^3 H] prazosin, rat brain cortex membranes. As to conditions: 0.2 nM [^3 H] prazocin, pH 7.4, 30 min, room temperature. How it is done: as §1
The nature of assay [2]: Antihypertensive activity in anesthetized cats (blood pressure). As to conditions: pentobarbital-anesthetized cats. In kind it is in vivo, cat. How it is done:
The pharmacological activities of the compounds of the present invention are described in the following experiment. In this experiment, the test compounds used are as follows.
Adult cats of either sex, 2-3 Kg, anesthetized with pentobarbital sodium (30 mg/Kg i.p.) were used. The trachea was intubated to provide artificial respiration with air by means of a Harvard respirator (respiration rate=6-20/min and colume=40-50 ml/stroke). Both femoral artery and vein were cannulated with PE 150 to monitor blood pressure and for drug administration respectively. Body temperature was maintained at 37.5° C. with a heating pad and monitored with a rectal thermometer. Blood pressure was measured with a Statham P23D pressure transducer via a polyethylene cannula conducted to a right femoral artery. Heart rate was measured through a Grass Model 7B tachograph preamplifier triggered by the pulses of arterial blood pressure. All data were recorded on a Grass Model 7B polygraph.

On to `O=C(c1ccc(F)cc1)C1CCN(CCn2c(=S)[nH]c3ccccc3c2=O)CC1` [thioketanserin], for which, in assay [1], the “antihypertensive activity (in words), background art” value is reported as “found to have antihypertensive activities”.
The Ki is the equilibrium dissociation constant of an inhibitor or competing ligand from its target. A lower Ki goes with tighter binding. For `COc1cccc(N2CCN(CC3CN=C4c5ccccc5N=C(SC)N43)CC2)c1` (stereo not drawn) [Example 7, 3-{4-[1-(3-methoxyphenyl)piperazinyl]}methyl-5-methylthio-2,3-dihydroimidazo[1,2-c]quinazoline], the Ki on α2-adrenergic receptor worked out at 8360 ± 588 nM; at α1-Adrenergic receptor it was 48.9 ± 20.4 nM.
At α1-Adrenergic receptor, `COc1cccc(N2CCN(CC3CN=C4c5ccccc5NC(=O)N43)CC2)c1` (stereo not drawn) [Example 19, 3-{4-[1-(3-methoxyphenyl)piperazinyl]}methyl-2,3-dihydroimidazo[1,2-c]-quinazolin-5(6H)-one] came in with a Ki of 5.76 ± 0.48 nM.
Same read-out and setting: as for `COC1=Nc2ccccc2C2=NCC(CN3CCN(c4cccc(OC)c4)CC3)N12` (stereo not drawn) [Example 14, 3-{4-[1-(3-methoxyphenyl)piperazinyl]}methyl-5-methoxy-2,3-dihydroimidazo[1,2-c]quinazoline], the figure is more than 100 nM.
Compound `COc1ccccc1N1CCN(CC2CN=C3c4ccccc4N(C)C(=O)N32)CC1` (stereo not drawn) [Example 23, 3-{4-[1-(2-methoxyphenyl)piperazinyl]}methyl-6-methyl-2,3-dihydroimidazo[1,2-c]quinazolin-5(6H)-one] came in with a Ki on α1-Adrenergic receptor of 0.36 ± 0.05 nM. Moreover, the “MBP (2 hr)” value in assay [2] (dose 0.25 mg/Kg) came to 40 mmHg; in assay [2] (dose 1 mg/Kg) it was 63 mmHg.
On α1-Adrenergic receptor, `COc1ccccc1N1CCN(CC2CN=C3c4ccccc4N=C(SC)N32)CC1` (stereo not drawn) [Example 6, 3-{4-[1-(2-methoxyphenyl)piperazinyl]}methyl-5-methylthio-2,3-dihydroimidazo[1,2-c]quinazoline] displayed a Ki of 0.54 ± 0.09 nM. Also, the “MBP (2 hr)” value in assay [2] (dose 1 mg/Kg) was 70 mmHg.
The compound `COC1=Nc2ccccc2C2=NCC(CN3CCN(c4ccccc4OC)CC3)N12` (stereo not drawn) [Example 12, 3-{4-[1-(2-Methoxyphenyl)piperazinyl]}methyl-5-methoxy-2,3-dihydroimidazo[1,2-c]quinazoline] had a Ki at α1-Adrenergic receptor of 0.07 ± 0.007 nM.
Regarding `O=C1Nc2ccccc2C2=NCC(CN3CCN(c4ccccc4Cl)CC3)N12` (stereo not drawn) [Example 21, 3-{4-[1-(2-chlorophenyl)piperazinyl]}methyl-2,3-dihydroimidazo[1,2-c]quinazolin-5(6H)-one], the Ki at α1-Adrenergic receptor came out at 0.58 ± 0.07 nM. Further, in assay [2] (dose 1 mg/Kg), the “MBP (2 hr)” value is 35 mmHg.
On to `O=C1Nc2ccccc2C2=NCC(CN3CCN(c4ccccc4)CC3)N12` (stereo not drawn) [Example 17, 3-(4-Phenyl-1-piperazinyl)-methyl-2,3-dihydroimidazo[1,2-c]quinazolin-5(6H)-one], for which the affinity on α2-adrenergic receptor, expressed as Ki, was 962 ± 29 nM.
`COc1ccccc1N1CCN(CC2CN=C3c4ccccc4NC(=O)N32)CC1` (stereo not drawn) [Example 18, 3-{4-[1-(2-methoxyphenyl)piperazinyl]}methyl-2,3-dihydroimidazo[1,2-c]quinazolin-5(6H)-one] displayed a Ki on α1-Adrenergic receptor of 0.45 ± 0.09 nM. Besides, the “MBP (2 hr)” value in assay [2] (dose 1 mg/Kg) is on record as 50 mmHg.
Turning to `CN1C(=O)N2C(=NCC2CN2CCN(c3ccccc3Cl)CC2)c2ccccc21` (stereo not drawn) [Example 22, 3-{4-[1-(2-chlorophenyl)piperazinyl]}methyl-6-methyl-2,3-dihydroimidazo[1,2-c]quinazolin-5(6H)-one], the “MBP (2 hr)” value in assay [2] (dose 1 mg/Kg) is 50 mmHg.
`COc1ccccc1N1CCN(CCn2c(=O)[nH]c3ccccc3c2=O)CC1.Cl` [SGB-1534, reference compound] registered a Ki on α1-Adrenergic receptor of 0.25 ± 0.06 nM. Also, the “antihypertensive activity (in words), background art” value in assay [1] is recorded as “found to have antihypertensive activities”.
`COC1=Nc2ccccc2C2=NCC(CN3CCN(c4ccccc4Cl)CC3)N12` (stereo not drawn) [Example 16, 3-{4-[1-(2-chlorophenyl)piperazinyl]}methyl-5-methoxy-2,3-dihydroimidazo[1,2-c]quinazoline]: the “MBP (2 hr)” value in assay [2] (dose 1 mg/Kg) amounted to 23 mmHg.
In the case of `CSC1=Nc2ccccc2C2=NCC(CN3CCN(c4ccccc4Cl)CC3)N12` (stereo not drawn) [Example 9, 3-{4-[1-(2-chlorophenyl)piperazinyl]}methyl-5-methylthio-2,3-dihydroimidazo[1,2-c]quinazoline], the Ki on α2-adrenergic receptor worked out at 180 ± 7 nM; on α1-Adrenergic receptor it was 0.34 ± 0.06 nM. The “MBP (2 hr)” value in assay [2] (dose 1 mg/Kg) is recorded as 30 mmHg.
In turn, `CSC1=Nc2ccccc2C2=NCC(CN3CCN(c4ccccc4)CC3)N12` (stereo not drawn) [Example 5, 3-[4-(1-Phenyl)piperazinyl]methyl-5-methylthio-2,3-dihydroimidazo[1,2-c]quinazoline] registered a Ki on α1-Adrenergic receptor of more than 10 nM.
